Test results published in patent US12653186B2, “[(1-phenyl-5-(heteroaryl)-1H-1,2,4-triazol-3-yl)oxy] acetic acid derivatives as safeners for the protection of useful plants and crop plants” (BAYER AKTIENGESELLSCHAFT, priority 2020, dated 2026).

What was measured:
summer wheat (TRZAS) = test: Reduction of damage by mesosulfuron-methyl on summer wheat (safener action, greenhouse, post-emergence); type: in vivo, summer wheat (TRZAS; cv. Triso); design: key: 0: no reduction in damage (appearance corresponding to the herbicide control); 1: slight reduction in damage; 2: distinct reduction in damage; 3: significant reduction in damage; 4: complete reduction in damage (appearance corresponding to the untreated control); settings: then mesosulfuron-methyl 40-60 g/ha, visual assessment 9-13 days after application
Experimental: (§1) 2.1 Relative Action of Selected Compounds of the Invention Using the Example of Reduction of Damage by Mesosulfuron-Methyl on Summer Wheat (TRZAS) The seeds of the crop plants to be treated are laid out in sandy loam in plastic pots (diameter ˜4 cm), covered with soil and grown in a greenhouse under good conditions for germination and growth. The trial plants were treated at the early leaf stage (BBCH10-BBCH12). In the course of this, the inventive compounds of the general formula (I) formulated in the form of wettable powders (WP) were sprayed onto the above-ground parts of the plants as an aqueous suspension with a water application rate corresponding to 800 l/ha with addition of wetting agent (e.g. 0.2% Genapol-LRO or 0.2% Mero) in the specified dose. This was followed by the application of the herbicide. For this purpose, mesosulfuron-methyl, formulated in the form of water-dispersible granules (WG), was sprayed onto the above-ground parts of the plants in the form of an aqueous dispersion with a water application rate corresponding to 800 l/ha with addition of wetting agent (e.g. 0.2% Genapol-LRO or 1 l/ha Biopower) in a dose of 40-60 g/ha. The dose of the herbicide was chosen here such that it causes visually apparent damage (min. 30%, max. 75%) compared to untreated crop plants at the evaluation time on a control group of crop plants without safener treatment that were included in the same trial. After application, the plants were cultivated under good growth conditions in a greenhouse. 9-13 days after application, the efficacy of the test compounds was assessed visually. For this purpose, the appearance of the plants treated with the test compound and herbicide was compared to the corresponding herbicide controls (without safener; with clearly visible damage) and the untreated controls (without damage). The damage-reducing effect of the test compounds was expressed here in graded efficacy codes according to the following scheme: • 0: no reduction in damage (appearance corresponding to the herbicide control) • 1: slight reduction in damage • 2: distinct reduction in damage • 3: significant reduction in damage • 4: complete reduction in damage (appearance corresponding to the untreated control) The trials show clear efficacy of the inventive compounds selected by way of example with regard to the reduction in damage to the summer wheat crop plant (TRZAS; cv. Triso) caused by the herbicide mesosulfuron-methyl: […]

summer barley (HORVS) = test: Reduction of damage by mesosulfuron-methyl on summer barley (safener action, greenhouse, post-emergence); type: in vivo, summer barley (HORVS; cv. Montoya); design: key: 0: no reduction in damage (appearance corresponding to the herbicide control); 1: slight reduction in damage; 2: distinct reduction in damage; 3: significant reduction in damage; 4: complete reduction in damage (appearance corresponding to the untreated control); settings: then mesosulfuron-methyl 40-60 g/ha, visual assessment 9-13 days after application, 2 repeats
Experimental: as §1, with “2.2 Relative Action” for “2.1 Relative Action”, “on Summer Barley (HORVS) The seeds” for “on Summer Wheat (TRZAS) The seeds”, “expressed here separately for 2 repeats in graded” for “expressed here in graded”, “the summer barley crop plant” for “the summer wheat crop plant”, “crop plant (HORVS; cv. Montoya)” for “crop plant (TRZAS; cv. Triso)”, “(HORVS; cv. Montoya) caused by” for “(TRZAS; cv. Triso) caused by”

SMILES	Efficacy of the safener (efficacy code) (summer wheat (TRZAS); safener 100 g/ha)	Efficacy of the safener (efficacy code) (summer barley (HORVS); safener 100 g/ha)	Efficacy of the safener (efficacy code) (summer wheat (TRZAS); safener 500 g/ha)	Efficacy of the safener (efficacy code) (summer barley (HORVS); safener 500 g/ha)
O=C(COc1nc(-c2ccc(Cl)cn2)n(-c2ccc(F)cc2F)n1)OCC1CC1 [I.80-38, Cyclopropylmethyl {[5-(5-chloropyridin-2-yl)-1-(2,4-difluorophenyl)-1H-1,2,4-triazol-3-yl]oxy}acetate]	2	–	–	–
CCOC(=O)COc1nc(-c2ccc(F)cn2)n(-c2ccc(Cl)cc2)n1 [I.32-7]	2	2-3	–	–
CCOC(=O)COc1nc(-c2ccc(F)cn2)n(-c2ccc(F)cc2F)n1 [I.32-38]	2	2	–	–
CCOC(=O)COc1nc(-c2ccc(Cl)cn2)n(-c2ccccc2F)n1 [I.29-2]	2	–	–	–
COC(=O)COc1nc(-c2ccncc2Cl)n(-c2ccc(Cl)cc2F)n1 [I.43-49]	–	2	–	–
CCOC(=O)COc1nc(-c2ccc(Cl)cn2)n(-c2ccc(F)cc2F)n1 [I.29-38]	2	2	–	–
COC(=O)COc1nc(-c2ncccc2F)n(-c2ccccc2)n1 [I.64-1]	2	–	2	2
COC(=O)COc1nc(-c2ccc(Cl)cn2)n(-c2ccc(F)cc2F)n1 [I.28-38, Methyl {[5-(5-chloropyridin-2-yl)-1-(2,4-difluorophenyl)-1H-1,2,4-triazol-3-yl]oxy}acetate]	–	2	–	–
O=C(COc1nc(-c2ccc(Cl)cn2)n(-c2ccc(F)cc2F)n1)OCC1CCOC1 (centres unmarked) [I.69-38]	–	2-3	–	–
CCOC(=O)COc1nc(-c2ccc(F)cn2)n(-c2ccc(Cl)cc2F)n1 [I.32-49]	2	2	–	–
O=C(O)COc1nc(-c2ccc(Cl)cn2)n(-c2ccc(F)cc2F)n1 [I.30-38, {[5-(5-Chloropyridin-2-yl)-1-(2,4-difluorophenyl)-1H-1,2,4-triazol-3-yl]oxy}acetic acid]	2	2	–	–
CCOC(=O)COc1nc(-c2ccc(F)cn2)n(-c2ccccc2F)n1 [I.32-2]	2	–	–	–
O=C(O)COc1nc(-c2ccc(F)cn2)n(-c2ccc(Cl)cc2F)n1 [I.33-49]	2	–	–	–
O=C(COc1nc(-c2ccc(Cl)cn2)n(-c2ccc(F)cc2F)n1)OCC1CCCO1 (centres unmarked) [I.68-38]	2	2	–	–
COC(=O)COc1nc(-c2ccc(F)cn2)n(-c2ccc(Cl)cc2F)n1 [I.31-49]	2	2	–	–
CCOC(=O)COc1nc(-c2ccc(F)cn2)n(-c2ccc(F)cc2)n1 [I.32-4]	2	–	–	–
COC(=O)COc1nc(-c2ncccc2F)n(-c2ccc(Cl)cc2F)n1 [I.64-49]	–	–	2	2
O=C(O)COc1nc(-c2ccc(F)cn2)n(-c2ccc(F)cc2)n1 [I.33-4]	2	–	–	–
COC(=O)CCOC(=O)COc1nc(-c2ccc(Cl)cn2)n(-c2ccc(F)cc2F)n1 [I.67-38]	2	–	–	–
COCCOC(=O)COc1nc(-c2ccc(Cl)cn2)n(-c2ccc(F)cc2F)n1 [I.73-38]	–	2-3	–	–
COC(=O)COc1nc(-c2ccc(Cl)cn2)n(-c2ccc(Cl)cc2F)n1 [I.28-49]	2	2	–	–
O=C(COc1nc(-c2ccc(Cl)cn2)n(-c2ccc(F)cc2F)n1)OCC1OCCO1 [I.70-38]	–	2	–	–
COC(=O)COc1nc(-c2ccc(F)cn2)n(-c2ccc(F)cc2F)n1 [I.31-38]	2	–	–	–
COC(=O)COc1nc(-c2ccc(F)cn2)n(-c2ccc(F)cc2Cl)n1 [I.31-48]	2	2	–	–
COC(=O)COc1nc(-c2ccc(F)cn2)n(-c2ccc(Cl)cc2)n1 [I.31-7]	2	2	–	–
